Results: ChEMBL document CHEMBL1144127, “Montadial A, a cytotoxic metabolite from Bondarzewia montana” (J Nat Prod, 1999)
Activity calls are given as the source filed them.

What was measured:
Setaria italica = assay: Phytotoxicity against Setaria italica at 50 ug/disk; assay type: functional, organism-based
HL-60 = assay: Cytotoxicity against human HL-60 cells at 5 ug/mL; assay type: functional, cell-based
L1210 = assay: Cytotoxicity against mouse L1210 cells at 10 ug/mL; assay type: functional, cell-based

Measured: Activity

C/C(C=O)=C\Cc1cc(C=O)cc(O)c1O
active: all assays above
